Data as given in the supplement of paper PMC10627819.

Key:
Assay in all cases: fitness (endpoint OD595 vs no drug) (fraction); higher = more growth
S. aureus DSM 20231 = test system: S. aureus DSM 20231
In short: (§1)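 Bacterial fitness was scored as optical density at the stationary-phase transition relative to the robust mean of no-drug control wells. Scores are capped at 1. The growth data were OD595 readings every 30 min for 14 h at 37 °C, background-subtracted against the first reading, from 384-well plates inoculated at OD595 0.01 in TSB, LB Lennox or CY.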

S. aureus Newman = test system: S. aureus Newman
In short: as §1

S. pneumoniae D39V = test system: S. pneumoniae D39V
In short: as §1
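Further: OD595 on entry to stationary phase over no-drug wells; at most 1.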

CO[C@@]12[C@H](COC(N)=O)C3=C(C(=O)C(C)=C(N)C3=O)N1C[C@@H]1N[C@@H]12 [Mitomycin C] + CCCCCCCCCC(=O)N[C@@H]1[C@H]([C@@H]([C@H](O[C@H]1OC2=C3C=C4C=C2OC5=C(C=C(C=C5)[C@H]([C@H]6C(=O)N[C@@H](C7=C(C(=CC(=C7)O)OC8[C@H]([C@H]([C@@H]([C@H](O8)CO)O)O)O)C9=C(C=CC(=C9)[C@H](C(=O)N6)NC(=O)[C@@H]4NC(=O)[C@@H]1C2=CC(=CC(=C2)OC2=C(C=CC(=C2)[C@H](C(=O)N[C@H](CC2=CC(=C(O3)C=C2)Cl)C(=O)N1)N)O)O)O)C(=O)O)O[C@H]1[C@@H]([C@H]([C@@H]([C@H](O1)CO)O)O)NC(=O)C)Cl)CO)O)O [Teicoplanin]
fitness, main component drawn
Settings | first compound 0.0156 µg/mL | first compound 0.0312 µg/mL | first compound 0.0625 µg/mL
S. aureus DSM 20231, partner 0.1562 µg/mL | 0.813 | 0.757 | 0.513
S. aureus DSM 20231, partner 0.3125 µg/mL | 0.855 | 0.81 | 0.418
S. aureus DSM 20231, partner 0.625 µg/mL | 0.902 | 0.814 | 0.255
S. aureus Newman, partner 0.1562 µg/mL | 0.741 | 0.655 | 0.429
S. aureus Newman, partner 0.3125 µg/mL | 0.753 | 0.582 | 0.296
S. aureus Newman, partner 0.625 µg/mL | 0.568 | 0.417 | 0.138

fitness, S. aureus Newman, one replicate, main component drawn
Settings | first compound 0.0156 µg/mL | first compound 0.0312 µg/mL | first compound 0.0625 µg/mL
partner 0.62 µg/mL | 0.603 | 0.482 | 0.141
partner 1.24 µg/mL | 0.482 | 0.322 | 0.02
partner 2.48 µg/mL | 0.0779 | 0.119 | 0.0423

CO[C@@]12[C@H](COC(N)=O)C3=C(C(=O)C(C)=C(N)C3=O)N1C[C@@H]1N[C@@H]12 [Mitomycin C] + CCN(CC)CCOC(=O)c1ccc(N)cc1 [Procaine]
fitness
Settings | first compound 0.001075 µg/mL | first compound 0.00215 µg/mL | first compound 0.0043 µg/mL | first compound 0.0156 µg/mL | first compound 0.0312 µg/mL | first compound 0.0625 µg/mL
S. aureus DSM 20231, partner 85.5 µg/mL | – | – | – | 0.724 | 0.668 | 0.533
S. aureus DSM 20231, partner 171 µg/mL | – | – | – | 0.796 | 0.753 | 0.572
S. aureus DSM 20231, partner 342 µg/mL | – | – | – | 0.754 | 0.743 | 0.576
S. aureus Newman, partner 85.5 µg/mL | – | – | – | 0.768 | 0.74 | 0.595
S. aureus Newman, partner 171 µg/mL | – | – | – | 0.765 | 0.695 | 0.582
S. aureus Newman, partner 342 µg/mL | – | – | – | 0.772 | 0.686 | 0.565
S. pneumoniae D39V, partner 85.5 µg/mL | 0.966 | 0.935 | 0.844 | – | – | –
S. pneumoniae D39V, partner 171 µg/mL | 0.929 | 0.939 | 0.814 | – | – | –
S. pneumoniae D39V, partner 342 µg/mL | 0.937 | 0.951 | 0.826 | – | – | –

fitness, S. pneumoniae D39V, one replicate
Settings | first compound 0.002 µg/mL | first compound 0.004 µg/mL | first compound 0.008 µg/mL
partner 85.5 µg/mL | 0.923 | 0.885 | 0.633
partner 171 µg/mL | 0.885 | 0.847 | 0.641
partner 342 µg/mL | 0.818 | 0.812 | 0.645

CO[C@@]12[C@H](COC(N)=O)C3=C(C(=O)C(C)=C(N)C3=O)N1C[C@@H]1N[C@@H]12 [Mitomycin C] + CN1C2=CC=CC=C2N=C3C1=CC=CC3=O [Pyocyanin]
fitness
Settings | first compound 0.001075 µg/mL | first compound 0.00215 µg/mL | first compound 0.0043 µg/mL | first compound 0.0156 µg/mL | first compound 0.0312 µg/mL | first compound 0.0625 µg/mL
S. aureus DSM 20231, partner 1.25 µg/mL | – | – | – | 0.704 | 0.73 | 0.573
S. aureus DSM 20231, partner 2.5 µg/mL | – | – | – | 0.668 | 0.691 | 0.555
S. aureus DSM 20231, partner 5 µg/mL | – | – | – | 0.547 | 0.543 | 0.414
S. aureus Newman, partner 1.25 µg/mL | – | – | – | 0.648 | 0.614 | 0.49
S. aureus Newman, partner 2.5 µg/mL | – | – | – | 0.558 | 0.58 | 0.406
S. aureus Newman, partner 5 µg/mL | – | – | – | 0.265 | 0.239 | 0.0918
S. pneumoniae D39V, partner 0.325 µg/mL | 0.964 | 0.984 | 0.847 | – | – | –
S. pneumoniae D39V, partner 0.65 µg/mL | 0.964 | 0.975 | 0.844 | – | – | –
S. pneumoniae D39V, partner 1.3 µg/mL | 0.726 | 0.721 | 0.621 | – | – | –

fitness, S. pneumoniae D39V, one replicate
Settings | first compound 0.002 µg/mL | first compound 0.004 µg/mL | first compound 0.008 µg/mL
partner 0.325 µg/mL | 0.853 | 0.77 | 0.642
partner 0.65 µg/mL | 0.835 | 0.802 | 0.744

CO[C@@]12[C@H](COC(N)=O)C3=C(C(=O)C(C)=C(N)C3=O)N1C[C@@H]1N[C@@H]12 [Mitomycin C] + CN(C)c1cc(NC(=O)CNC(C)(C)C)c(O)c2c1C[C@H]1C[C@H]3[C@H](N(C)C)C(O)=C(C(N)=O)C(=O)[C@@]3(O)C(O)=C1C2=O [Tigecycline]
fitness
Settings | first compound 0.001075 µg/mL | first compound 0.002 µg/mL | first compound 0.00215 µg/mL | first compound 0.004 µg/mL | first compound 0.0043 µg/mL | first compound 0.008 µg/mL | first compound 0.0156 µg/mL | first compound 0.0312 µg/mL | first compound 0.0625 µg/mL
S. aureus Newman, partner 0.039 µg/mL | – | – | – | – | – | – | 0.7 | 0.661 | 0.551
S. aureus Newman, partner 0.078 µg/mL | – | – | – | – | – | – | 0.725 | 0.655 | 0.558
S. aureus Newman, partner 0.156 µg/mL | – | – | – | – | – | – | 0.746 | 0.679 | 0.505
S. pneumoniae D39V, partner 0.65 µg/mL | 0.89 | 0.878 | 0.848 | 0.804 | 0.819 | 0.688 | – | – | –
S. pneumoniae D39V, partner 1.3 µg/mL | 0.877 | 0.888 | 0.859 | 0.764 | 0.822 | 0.625 | – | – | –
S. pneumoniae D39V, partner 2.6 µg/mL | 0.893 | 0.816 | 0.844 | 0.806 | 0.783 | 0.627 | – | – | –

CO[C@@]12[C@H](COC(N)=O)C3=C(C(=O)C(C)=C(N)C3=O)N1C[C@@H]1N[C@@H]12 [Mitomycin C] + CN[C@@H]1[C@H](O[C@H]2[C@H](O[C@H]3[C@H](O)[C@@H](O)[C@H](N=C(N)N)[C@@H](O)[C@@H]3N=C(N)N)O[C@@H](C)[C@]2(O)C=O)O[C@@H](CO)[C@H](O)[C@H]1O [Streptomycin]
fitness
Settings | partner 1 µg/mL | partner 2 µg/mL | partner 4 µg/mL | partner 8 µg/mL
S. aureus Newman, first compound 0.0156 µg/mL | 0.727 | 0.683 | – | –
S. aureus Newman, first compound 0.0312 µg/mL | 0.666 | 0.677 | 0.523 | –
S. aureus Newman, first compound 0.0625 µg/mL | 0.473 | 0.402 | 0.272 | –
S. pneumoniae D39V, first compound 0.001075 µg/mL | – | 0.883 | 0.913 | 0.939
S. pneumoniae D39V, first compound 0.002 µg/mL | – | – | 0.857 | 0.802
S. pneumoniae D39V, first compound 0.00215 µg/mL | – | 0.838 | 0.827 | 0.834
S. pneumoniae D39V, first compound 0.004 µg/mL | – | – | 0.712 | 0.668
S. pneumoniae D39V, first compound 0.0043 µg/mL | – | 0.701 | 0.741 | 0.717
S. pneumoniae D39V, first compound 0.008 µg/mL | – | – | 0.54 | 0.56

fitness, S. pneumoniae D39V, one replicate
Settings | first compound 0.002 µg/mL | first compound 0.004 µg/mL | first compound 0.008 µg/mL
partner 2 µg/mL | 0.857 | 0.749 | 0.666
partner 16 µg/mL | 0.711 | 0.544 | 0.304

CO[C@@]12[C@H](COC(N)=O)C3=C(C(=O)C(C)=C(N)C3=O)N1C[C@@H]1N[C@@H]12 [Mitomycin C] + CO[C@H]1/C=C/O[C@@]2(C)Oc3c(C)c(O)c4c(O)c(c(/C=N/N5CCN(C)CC5)c(O)c4c3C2=O)NC(=O)/C(C)=C\C=C\[C@H](C)[C@H](O)[C@@H](C)[C@@H](O)[C@@H](C)[C@H](OC(C)=O)[C@@H]1C [Rifampicin]
fitness, S. pneumoniae D39V
Settings | first compound 0.001075 µg/mL | first compound 0.002 µg/mL | first compound 0.00215 µg/mL | first compound 0.004 µg/mL | first compound 0.0043 µg/mL | first compound 0.008 µg/mL
partner 0.05 µg/mL | 0.779 | 0.647 | 0.664 | 0.558 | 0.517 | –
partner 0.1 µg/mL | 0.458 | 0.289 | 0.307 | 0.308 | 0.288 | 0.288
partner 0.2 µg/mL | 0.18 | – | 0.169 | – | 0.129 | –

fitness, S. pneumoniae D39V, one replicate
Settings | first compound 0.002 µg/mL | first compound 0.004 µg/mL | first compound 0.008 µg/mL
partner 0.025 µg/mL | 0.804 | 0.698 | 0.492
partner 0.2 µg/mL | 0 | 0 | 0

CO[C@@]12[C@H](COC(N)=O)C3=C(C(=O)C(C)=C(N)C3=O)N1C[C@@H]1N[C@@H]12 [Mitomycin C] + COc1cc(Cc2cnc(N)nc2N)cc(OC)c1OC [Trimethoprim]
fitness, S. aureus DSM 20231
Settings | partner 0.125 µg/mL | partner 0.25 µg/mL | partner 0.5 µg/mL | partner 1 µg/mL
first compound 0.0156 µg/mL | 0.6 | 0.506 | 0.0394 | 0.0198
first compound 0.0312 µg/mL | 0.604 | 0.485 | 0.0541 | 0.0233
first compound 0.0625 µg/mL | 0.491 | 0.279 | 0.0513 | 0.0116

CO[C@@]12[C@H](COC(N)=O)C3=C(C(=O)C(C)=C(N)C3=O)N1C[C@@H]1N[C@@H]12 [Mitomycin C] + O=C1CN(/N=C/c2ccc([N+](=O)[O-])o2)C(=O)N1 [Nitrofurantoin]
fitness, S. pneumoniae D39V
Settings | first compound 0.001075 µg/mL | first compound 0.002 µg/mL | first compound 0.00215 µg/mL | first compound 0.004 µg/mL | first compound 0.0043 µg/mL | first compound 0.008 µg/mL
partner 1.285 µg/mL | – | 0.896 | – | 0.74 | – | 0.588
partner 2 µg/mL | 0.889 | – | 0.883 | – | 0.759 | –
partner 2.57 µg/mL | – | 0.839 | – | 0.765 | – | 0.535
partner 4 µg/mL | 0.866 | – | 0.835 | – | 0.679 | –
partner 8 µg/mL | 0.803 | – | 0.755 | – | 0.554 | –

S. pneumoniae D39V, partner 5.14 µg/mL, one replicate
Settings | fitness
first compound 0.002 µg/mL | 0.723
first compound 0.004 µg/mL | 0.613
first compound 0.008 µg/mL | 0.419
